Source: the NIST ThermoML archive (doi:10.1021/je200854k)

Details: Liquid, Capillary tube (Ostwald / Ubbelohde) method

FCC(F)(F)F [1,1,1,2-tetrafluoroethane]
viscosity [mPa·s]
Details	1000 kPa	2000 kPa	5000 kPa	10000 kPa	15000 kPa	20000 kPa	25000 kPa	30000 kPa	35000 kPa	40000 kPa
258.15 K	0.3251	–	0.3468	0.3675	0.3885	0.4094	0.4309	0.4502	0.4712	0.4996
278.14 K	0.2536	–	0.2678	0.2859	0.3033	0.3209	0.3381	0.3543	0.3712	0.3885
298.14 K	0.1962	–	0.2108	0.2273	0.2421	0.2567	0.2716	0.2876	0.3017	0.3169
318.13 K	–	0.1549	0.1656	0.1828	0.197	0.2111	0.2254	0.2393	0.2511	0.2647
338.13 K	–	0.1152	0.1288	0.1466	0.1618	0.1754	0.1893	0.2007	–	–

FC(F)(F)CC(F)(F)F [1,1,1,3,3,3-hexafluoropropane]
viscosity [mPa·s]
Details	1000 kPa	2000 kPa	5000 kPa	10000 kPa	15000 kPa	20000 kPa	25000 kPa	30000 kPa	35000 kPa	40000 kPa
253.15 K	0.5347	–	0.5621	0.5982	0.6363	0.671	0.7092	0.751	0.7898	0.8347
263.16 K	0.4612	–	0.4857	0.5184	0.5511	0.583	0.6154	0.6508	0.6835	0.7189
273.14 K	0.3999	–	0.4237	0.452	0.4821	0.5127	0.5412	0.5699	0.6012	0.6317
283.14 K	0.35	–	0.3722	0.3989	0.4259	0.4534	0.4798	0.5054	0.5325	0.5603
293.14 K	0.3074	–	0.3281	0.3534	0.3789	0.4034	0.4271	0.452	0.4757	0.5014
303.14 K	0.2708	–	0.2906	0.3141	0.3383	0.362	0.3838	0.4053	0.429	0.4513
313.14 K	0.2385	–	0.2585	0.2817	0.3041	0.3268	0.3467	0.3678	0.3897	0.41
323.13 K	0.21	–	0.2306	0.253	0.2742	0.295	0.3155	0.3353	0.3544	0.3744
333.13 K	0.1844	–	0.2046	0.2274	0.2481	0.2683	0.2868	0.3059	0.3248	0.3434
343.13 K	–	0.1669	0.1825	0.2044	0.2255	0.2447	0.2631	0.2805	0.2994	0.3154
353.13 K	–	0.1456	0.1618	0.1858	0.2064	0.2239	0.2427	0.2591	0.2761	0.2925
363.14 K	–	0.1248	0.1432	0.1663	0.1863	0.2051	0.2226	0.2395	0.2555	0.2713
373.14 K	–	0.1074	0.1287	0.1531	0.1718	0.1886	0.2056	0.2222	0.2366	0.2495

FC(F)CC(F)(F)F [1,1,1,3,3-pentafluoropropane]
viscosity [mPa·s]
Details	1000 kPa	2000 kPa	5000 kPa	10000 kPa	15000 kPa	20000 kPa	25000 kPa	30000 kPa	35000 kPa	40000 kPa
263.15 K	0.679	–	0.7113	0.7526	0.7951	0.8369	0.8778	0.9236	0.9686	1.015
273.14 K	0.5811	–	0.6083	0.6456	0.6801	0.717	0.7534	0.7902	0.8293	0.8685
283.14 K	0.4999	–	0.5252	0.5564	0.5887	0.6204	0.6519	0.6847	0.7184	0.7497
293.14 K	0.4344	–	0.4571	0.4859	0.5143	0.5433	0.5704	0.5998	0.6291	0.6589
303.14 K	0.3799	–	0.4011	0.4282	0.4534	0.4796	0.5048	0.5306	0.5573	0.5829
313.14 K	0.3343	–	0.3538	0.379	0.4035	0.427	0.4502	0.4745	0.4975	0.5211
323.13 K	0.2952	–	0.3139	0.3372	0.3595	0.3816	0.4029	0.425	0.4464	0.4694
333.13 K	0.2601	–	0.2788	0.3009	0.3232	0.3433	0.3637	0.3837	0.4048	0.4241
343.13 K	0.2301	–	0.2484	0.2698	0.29	0.31	0.3304	0.3488	0.3686	0.3872
353.13 K	0.2053	–	0.2226	0.2428	0.2627	0.2819	0.2999	0.3186	0.3361	0.3537
363.14 K	–	0.1838	0.1972	0.219	0.2389	0.2561	0.2746	0.2918	0.3084	0.325
373.14 K	–	0.1612	0.1758	0.1977	0.2165	0.2346	0.2518	0.2679	0.2839	–

Cc1ccccc1 [toluene]
viscosity [mPa·s]
Details	248.16 K	273.15 K	298.14 K	323.13 K	348.13 K
1000 kPa	1.19	0.7764	0.5581	0.4252	0.3356
10000 kPa	1.285	0.8352	0.6005	0.4563	0.3616
20000 kPa	1.397	0.9052	0.644	0.4908	0.3907
30000 kPa	1.521	0.9742	0.6909	0.5267	0.4198
40000 kPa	–	1.045	0.7419	0.5662	0.4497
